From patent US20250281479A1, “TREATMENT OF CAVERNOUS ANGIOMAS WITH A 4-SUBSTITUTED PIPERIDINE DERIVATIVE” (Neurelis, Inc., priority 2024, published 2025)

What was measured:
Format in all cases: in vitro ADME
P-gp = P-gp (Homo sapiens, UniProt P08183); test: transporter substrate assessment
Description: (§1) Exposure to NRL-2017 was similar or greater (up to 5-fold) than that to NRL-1049 in rats when dosed once a day (QD). In monkeys, exposure to NRL-2017 was also greater (up to 33-fold) than that to NRL-1049. When rats were dosed twice a day (BID) for 14 days, there was a decrease in formation of NRL-2017 with exposure to NRL-2017 lower than that of NRL-1049 (ratio as low as 0.06). […] NRL-1049 bound to human serum albumin and human alpha1-acid glycoprotein. […] There was also inhibition of P-glycoprotein (P-gp) (only CACO-2 cells), organic anion transporting polypeptides (OATP) OATP1B1, OATP1B3 and OAT3 (IC50, >100 μM), but no effect on P-gp (MDCK2 cells), breast cancer resistance protein (BCRP), bile salt export pump (BSEP), or MATE2-K. NRL-1049 is a substrate for P-gp, not BCRP. […] This conclusion will be revisited when human pharmacokinetic (PK) data becomes available.

BCRP = BCRP (Homo sapiens, UniProt Q9UNQ0); test: transporter substrate assessment
Sequence of BCRP (Q9UNQ0 whole entry): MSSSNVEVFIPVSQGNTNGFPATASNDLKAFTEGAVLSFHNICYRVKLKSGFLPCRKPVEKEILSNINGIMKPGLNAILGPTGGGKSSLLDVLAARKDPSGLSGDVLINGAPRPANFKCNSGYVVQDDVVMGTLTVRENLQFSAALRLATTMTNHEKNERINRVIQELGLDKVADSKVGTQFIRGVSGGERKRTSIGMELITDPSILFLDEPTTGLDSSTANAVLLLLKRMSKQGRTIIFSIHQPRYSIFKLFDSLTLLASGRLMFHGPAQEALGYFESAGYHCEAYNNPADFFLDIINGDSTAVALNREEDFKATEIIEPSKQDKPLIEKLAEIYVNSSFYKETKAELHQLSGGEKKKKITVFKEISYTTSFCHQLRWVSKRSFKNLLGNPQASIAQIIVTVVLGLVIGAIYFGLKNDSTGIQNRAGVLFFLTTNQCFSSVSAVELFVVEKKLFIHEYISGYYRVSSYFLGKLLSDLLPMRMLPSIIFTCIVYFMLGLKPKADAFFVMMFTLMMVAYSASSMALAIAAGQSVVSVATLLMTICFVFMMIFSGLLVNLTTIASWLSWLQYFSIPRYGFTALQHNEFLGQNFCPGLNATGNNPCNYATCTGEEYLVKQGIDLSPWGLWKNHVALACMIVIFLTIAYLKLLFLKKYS
Description: as §1

MATE2-K = MATE2-K (Homo sapiens, UniProt Q86VL8)
Sequence of MATE2-K (Q86VL8 1-566 isoform Q86VL8-3): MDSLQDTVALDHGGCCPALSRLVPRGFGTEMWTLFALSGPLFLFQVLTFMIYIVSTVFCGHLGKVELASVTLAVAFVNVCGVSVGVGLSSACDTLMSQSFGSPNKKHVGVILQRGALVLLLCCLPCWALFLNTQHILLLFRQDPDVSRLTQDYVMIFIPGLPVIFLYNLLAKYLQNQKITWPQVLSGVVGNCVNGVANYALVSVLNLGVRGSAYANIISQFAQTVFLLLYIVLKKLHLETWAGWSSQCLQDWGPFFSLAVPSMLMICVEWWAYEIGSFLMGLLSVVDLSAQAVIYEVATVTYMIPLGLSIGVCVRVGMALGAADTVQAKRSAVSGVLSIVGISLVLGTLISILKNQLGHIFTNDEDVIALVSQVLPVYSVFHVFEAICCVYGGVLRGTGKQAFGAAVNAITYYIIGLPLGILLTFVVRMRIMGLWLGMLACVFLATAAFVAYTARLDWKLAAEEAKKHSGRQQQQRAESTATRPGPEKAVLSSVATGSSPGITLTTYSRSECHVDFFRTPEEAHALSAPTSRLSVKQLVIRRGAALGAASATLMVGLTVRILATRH
Description: as §1

rat hepatocytes = test: incubation with rat hepatocytes; details: two metabolites formed, NRL-2017 and an N-oxide
Description: as §1

[1] = test system: mouse, monkey, and human hepatocytes; test: incubation with hepatocytes (mouse, monkey, human)
Description: as §1

Sequence of P-gp (P08183 whole entry): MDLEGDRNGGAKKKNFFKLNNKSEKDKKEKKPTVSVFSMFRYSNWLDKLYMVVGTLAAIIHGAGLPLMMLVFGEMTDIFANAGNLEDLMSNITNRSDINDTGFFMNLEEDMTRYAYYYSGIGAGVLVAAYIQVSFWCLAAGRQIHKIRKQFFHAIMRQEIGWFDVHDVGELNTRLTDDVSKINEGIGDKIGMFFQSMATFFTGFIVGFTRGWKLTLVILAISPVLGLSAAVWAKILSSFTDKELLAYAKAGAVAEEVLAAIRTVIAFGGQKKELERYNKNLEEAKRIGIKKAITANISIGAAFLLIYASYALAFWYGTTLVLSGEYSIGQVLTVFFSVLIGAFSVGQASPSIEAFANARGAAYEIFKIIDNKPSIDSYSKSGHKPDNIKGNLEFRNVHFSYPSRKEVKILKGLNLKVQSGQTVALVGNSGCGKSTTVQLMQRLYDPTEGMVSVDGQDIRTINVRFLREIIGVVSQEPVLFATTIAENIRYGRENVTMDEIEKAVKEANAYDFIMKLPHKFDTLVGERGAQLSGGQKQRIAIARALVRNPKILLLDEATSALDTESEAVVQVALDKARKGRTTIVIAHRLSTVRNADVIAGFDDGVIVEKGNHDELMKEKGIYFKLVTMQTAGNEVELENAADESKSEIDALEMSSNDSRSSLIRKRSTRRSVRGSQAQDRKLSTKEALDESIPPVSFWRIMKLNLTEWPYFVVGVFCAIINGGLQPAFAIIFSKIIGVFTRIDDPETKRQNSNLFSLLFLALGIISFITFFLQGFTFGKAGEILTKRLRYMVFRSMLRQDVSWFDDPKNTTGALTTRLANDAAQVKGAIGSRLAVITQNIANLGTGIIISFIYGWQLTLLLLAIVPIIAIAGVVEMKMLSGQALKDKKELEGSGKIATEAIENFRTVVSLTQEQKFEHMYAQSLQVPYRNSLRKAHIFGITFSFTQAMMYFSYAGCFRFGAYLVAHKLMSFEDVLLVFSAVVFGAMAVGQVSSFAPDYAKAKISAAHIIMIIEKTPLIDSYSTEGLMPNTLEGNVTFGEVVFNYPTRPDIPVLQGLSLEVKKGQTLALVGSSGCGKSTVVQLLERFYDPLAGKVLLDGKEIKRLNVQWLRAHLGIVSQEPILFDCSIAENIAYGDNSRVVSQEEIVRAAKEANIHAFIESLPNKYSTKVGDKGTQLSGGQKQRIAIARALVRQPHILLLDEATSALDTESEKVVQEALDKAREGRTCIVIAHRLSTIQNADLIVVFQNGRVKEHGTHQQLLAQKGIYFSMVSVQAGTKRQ

## C[C@@H](N)C1CCN(S(=O)(=O)c2cccc3cnccc23)CC1 [NRL-1049]
P-gp
  substrate for P-gp: substrate
BCRP
  substrate for BCRP: not BCRP
MATE2-K
  effect on transporter: no effect
Rat hepatocytes
  clearance rate in hepatocytes: moderate
[1]
  clearance in hepatocytes: moderate to high clearance
